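1) Cells in 96-well plates. 2) Compound, 48 h, 5 concentrations. 3) Linear interpolation between surrounding doses. 4) Unreached endpoint = highest concentration. The concentration for 50% growth inhibition is given as GI50.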 Active and inactive are the calls of the source. Rule as the data show it: active = GI50 up to about 1.1 µM and inactive = higher.
Assays:
Experiment in all cases: NCI-60 cell line screen, 48 h
[1] = system: NCI-H460
[2] = system: SR
[3] = system: SK-MEL-28
[4] = system: UACC-62
[5] = system: SK-MEL-5
[6] = system: OVCAR-3
[7] = system: MDA-MB-435
[8] = system: IGROV-1
[9] = system: PC-3
[10] = system: SF-295
[11] = system: MDA-N
[12] = system: UACC-257
[13] = system: SW-620
[14] = system: NCI/ADR-RES
[15] = system: HCC 2998
[16] = system: RPMI-8226
[17] = system: HCT-116
[18] = system: 786-0
[19] = system: MDA-MB-231
[20] = system: A549
[21] = system: SK-MEL-2
[22] = system: COLO 205
[23] = system: NCI-H23
[24] = system: SK-OV-3
[25] = system: HL-60
[26] = system: LOX IMVI
[27] = system: MCF7
[28] = system: OVCAR-8
[29] = system: RXF 393
[30] = system: NCI-H226
[31] = system: SNB-19
[32] = system: HCT-15
[33] = system: HOP-62
[34] = system: K562
[35] = system: CCRF-CEM
[36] = system: HT-29
[37] = system: CAKI-1
[38] = system: SF-539
[39] = system: Hs-578T
[40] = system: T47D
[41] = system: SF-268
[42] = system: M14
[43] = system: SN12C
[44] = system: UO-31
[45] = system: DU-145
[46] = system: SNB-75
[47] = system: KM12
[48] = system: NCI-H522
[49] = system: Malme-3M
[50] = system: U-251
[51] = system: EKVX
[52] = system: TK-10
[53] = system: HOP-92
[54] = system: BT-549
[55] = system: OVCAR-4
[56] = system: MOLT-4
[57] = system: OVCAR-5
[58] = system: ACHN
[59] = system: A498

Measured: GI50

Cn1c(=O)c2c(ncn2CCCCOc2ccc3c(c2)[n+]([O-])nc(N)[n+]3[O-])n(C)c1=O
inactive: [1] 31 µM | [2] 49.2 µM | [3] 34.7 µM | [4] 17.1 µM | [5] 9.38 µM | [6] 20.4 µM | [7] 11.8 µM | [8] 15.7 µM | [9] 21.3 µM | [10] 32.6 µM | [11] 26.1 µM | [12] 23.9 µM | [13] 39.6 µM | [14] > 100 µM | [15] 19.2 µM | [16] 30.5 µM | [17] 28.1 µM | [18] 29 µM | [19] 30.5 µM | [20] 65.6 µM | [21] 28.9 µM | [22] 17 µM | [23] 12.4 µM | [24] 30.3 µM | [25] 34.9 µM | [26] 30.7 µM | [27] 11.9 µM | [28] 20 µM | [29] 14.9 µM | [30] 19.4 µM | [31] 31.1 µM | [33] 22.7 µM | [34] 20.9 µM | [35] 32.7 µM | [36] 43.2 µM | [37] 59.8 µM | [38] 21.1 µM | [39] 22.9 µM | [40] 2.38 µM | [41] 32.9 µM | [42] 29.4 µM | [43] 37.4 µM | [44] > 100 µM | [45] 44.2 µM | [46] 27.9 µM | [47] 32.6 µM | [48] 16.4 µM | [49] 21.1 µM | [50] 18.3 µM | [51] 28.7 µM | [52] 51.6 µM | [53] 4.76 µM | [54] 12.9 µM | [55] 41.8 µM | [56] 25.4 µM
65.2 µM: [32]

C=CCSC(C)=O
inactive: [1] > 100 µM | [2] > 100 µM | [3] > 100 µM | [4] > 100 µM | [5] > 100 µM | [6] > 100 µM | [7] > 100 µM | [8] > 100 µM | [9] > 100 µM | [10] > 100 µM | [11] > 100 µM | [13] > 100 µM | [14] > 100 µM | [15] > 100 µM | [16] > 100 µM | [17] > 100 µM | [18] > 100 µM | [19] > 100 µM | [20] > 100 µM | [21] > 100 µM | [22] > 100 µM | [23] > 100 µM | [24] > 100 µM | [25] > 100 µM | [26] > 100 µM | [27] > 100 µM | [28] > 100 µM | [30] > 100 µM | [31] > 100 µM | [33] > 100 µM | [34] > 100 µM | [35] > 100 µM | [36] > 100 µM | [37] > 100 µM | [38] > 100 µM | [39] > 100 µM | [57] > 100 µM | [40] > 100 µM | [41] > 100 µM | [42] > 100 µM | [43] > 100 µM | [44] > 100 µM | [45] > 100 µM | [46] > 100 µM | [58] > 100 µM | [47] > 100 µM | [48] 98.9 µM | [49] > 100 µM | [50] > 100 µM | [59] > 100 µM | [51] > 100 µM | [52] > 100 µM | [54] > 100 µM | [55] > 100 µM | [56] > 10 µM
> 100 µM: [32]

Reference: ChEMBL document CHEMBL1201862, “PubChem BioAssay data set” (2004)
